# Test results published in ChEMBL document CHEMBL1126185, “2-(N'-alkylidenehydrazino)adenosines: potent and selective coronary vasodilators” (J Med Chem, 1992).
# Legend:
# Adenosine receptor A1 = target: T1, Adenosine receptor A1 (Cavia porcellus, UniProt P47745); assay: In vitro prolonging of the stimulus-QRS interval in guinea pig heart.
# T1 sequence (P47745 whole entry): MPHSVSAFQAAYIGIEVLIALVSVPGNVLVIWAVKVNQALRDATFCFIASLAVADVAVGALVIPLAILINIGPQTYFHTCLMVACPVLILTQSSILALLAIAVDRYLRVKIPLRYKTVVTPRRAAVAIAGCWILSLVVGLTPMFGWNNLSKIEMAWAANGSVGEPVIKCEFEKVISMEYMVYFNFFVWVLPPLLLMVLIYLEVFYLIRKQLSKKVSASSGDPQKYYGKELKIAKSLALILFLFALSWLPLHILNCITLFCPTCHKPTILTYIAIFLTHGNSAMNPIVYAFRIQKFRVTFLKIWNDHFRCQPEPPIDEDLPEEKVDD
# [1] = target: Adenosine A2 receptor (Cavia porcellus); assay: In vitro effect on coronary vasodilation in guinea pig heart.
compound,measurement,setting,value
CC(C)C/C=N/Nc1nc(N)c2ncn([C@@H]3O[C@H](CO)[C@@H](O)[C@H]3O)c2n1,EC50,Adenosine receptor A1,20.9 µM
same,-Log EC50,[1],9.33
Nc1nc(NCCC2=CCCCC2)nc2c1ncn2C1O[C@H](CO)[C@@H](O)[C@H]1O (stereo partly specified),EC50,Adenosine receptor A1,22.9 µM
same,-Log EC50,[1],8.65
CCC/C=N/Nc1nc(N)c2ncn(C3O[C@H](CO)[C@@H](O)[C@H]3O)c2n1 (stereo partly specified),EC50,Adenosine receptor A1,11.5 µM
same,-Log EC50,[1],8.54
CC(C)/C=N/Nc1nc(N)c2ncn(C3O[C@H](CO)[C@@H](O)[C@H]3O)c2n1 (stereo partly specified),EC50,Adenosine receptor A1,12.6 µM
same,-Log EC50,[1],8.13
Nc1nc(N/N=C/C2=CCCCC2)nc2c1ncn2C1O[C@H](CO)[C@@H](O)[C@H]1O (stereo partly specified),EC50,Adenosine receptor A1,17.4 µM
C/C=N/Nc1nc(N)c2ncn(C3O[C@H](CO)[C@@H](O)[C@H]3O)c2n1 (stereo partly specified),EC50,Adenosine receptor A1,3.63 µM
same,-Log EC50,[1],7.12
CC(C)=NNc1nc(N)c2ncn(C3O[C@H](CO)[C@@H](O)[C@H]3O)c2n1 (stereo partly specified),EC50,Adenosine receptor A1,12 µM
same,-Log EC50,[1],7.3
Nc1nc(N/N=C/CC2CCCCC2)nc2c1ncn2C1O[C@H](CO)[C@@H](O)[C@H]1O (stereo partly specified),EC50,Adenosine receptor A1,9.77 µM
same,-Log EC50,[1],9.16
Nc1nc(N/N=C/CCC2CCCCC2)nc2c1ncn2C1O[C@H](CO)[C@@H](O)[C@H]1O (stereo partly specified),EC50,Adenosine receptor A1,66.1 µM
CC/C=N/Nc1nc(N)c2ncn(C3O[C@H](CO)[C@@H](O)[C@H]3O)c2n1 (stereo partly specified),EC50,Adenosine receptor A1,13.5 µM
same,-Log EC50,[1],7.88
Nc1nc(N/N=C/C2=CC3CCC2C3)nc2c1ncn2C1O[C@H](CO)[C@@H](O)[C@H]1O (stereo partly specified),EC50,Adenosine receptor A1,20.4 µM
same,-Log EC50,[1],8.48
NNc1nc(N)c2ncn(C3O[C@H](CO)[C@@H](O)[C@H]3O)c2n1 (stereo partly specified),EC50,Adenosine receptor A1,20 µM
CC(C)(C)/C=N/Nc1nc(N)c2ncn(C3O[C@H](CO)[C@@H](O)[C@H]3O)c2n1 (stereo partly specified),EC50,Adenosine receptor A1,25.1 µM
same,-Log EC50,[1],7.46
CCC(/C=N/Nc1nc(N)c2ncn(C3O[C@H](CO)[C@@H](O)[C@H]3O)c2n1)CC (stereo partly specified),EC50,Adenosine receptor A1,11 µM
same,-Log EC50,[1],8.24
Nc1nc(N/N=C/C2CC=CCC2)nc2c1ncn2C1O[C@H](CO)[C@@H](O)[C@H]1O (stereo partly specified),EC50,Adenosine receptor A1,7.24 µM
CCCC/C=N/Nc1nc(N)c2ncn(C3O[C@H](CO)[C@@H](O)[C@H]3O)c2n1 (stereo partly specified),EC50,Adenosine receptor A1,25.1 µM
same,-Log EC50,[1],8.99
CC1(C)C2CC=C(/C=N/Nc3nc(N)c4ncn(C5O[C@H](CO)[C@@H](O)[C@H]5O)c4n3)C1C2 (stereo partly specified),EC50,Adenosine receptor A1,25.7 µM
CCC(CC)=NNc1nc(N)c2ncn(C3O[C@H](CO)[C@@H](O)[C@H]3O)c2n1 (stereo partly specified),EC50,Adenosine receptor A1,8.91 µM
same,-Log EC50,[1],6.75
CCC/C(C)=N/Nc1nc(N)c2ncn(C3O[C@H](CO)[C@@H](O)[C@H]3O)c2n1 (stereo partly specified),EC50,Adenosine receptor A1,16.6 µM
same,-Log EC50,[1],8.7
Nc1nc(NCCC2CCCCC2)nc2c1ncn2C1O[C@H](CO)[C@@H](O)[C@H]1O (stereo partly specified),EC50,Adenosine receptor A1,12.3 µM
same,-Log EC50,[1],8.72
Nc1nc(N/N=C/C2CCCCC2)nc2c1ncn2[C@@H]1O[C@H](CO)[C@@H](O)[C@H]1O [BINODENOSON],EC50,Adenosine receptor A1,3.55 µM
